Reference: US20230181746A1, “BENZOYLHYDRAZIDE-DERIVED HDAC DEGRADERS AS THERAPEUTICS FOR TREATING CANCER AND OTHER HUMAN DISEASES” (University of Florida Research Foundation, Inc., priority 2020, published 2023)

Tests used:
[1] = target: T1, HDAC2 (Homo sapiens, UniProt Q92769); experiment: In vitro HDAC activity assay (HDAC-Glo I/II), HDAC2; format: biochemical; set-up: purchased BPS Bioscience 50002; details: average of three independent assays ± standard deviation
Experimental: (§1) Purified HDAC1, HDAC2, and HDAC3 (in complex with the deacetylase activation domain of the human NCOR2 (amino acids 395-498)) were obtained from Enzo Life Sciences (HDAC1, catalog # BML-SE456-0050) and BPS Bioscience (HDAC2, catalog #50002 and HDAC3, catalog #50003), respectively. The enzyme activities were tested using the HDAC-Glo I/II reagents (Promega) according to a protocol provided by the manufacturer.

[2] = target: HDAC1 (Homo sapiens, UniProt Q13547); experiment: In vitro HDAC activity assay (HDAC-Glo I/II), HDAC1; format: biochemical; set-up: purchased Enzo Life Sciences BML-SE456-0050; details: average of three independent assays ± standard deviation
HDAC1, sequence (Q13547 whole entry): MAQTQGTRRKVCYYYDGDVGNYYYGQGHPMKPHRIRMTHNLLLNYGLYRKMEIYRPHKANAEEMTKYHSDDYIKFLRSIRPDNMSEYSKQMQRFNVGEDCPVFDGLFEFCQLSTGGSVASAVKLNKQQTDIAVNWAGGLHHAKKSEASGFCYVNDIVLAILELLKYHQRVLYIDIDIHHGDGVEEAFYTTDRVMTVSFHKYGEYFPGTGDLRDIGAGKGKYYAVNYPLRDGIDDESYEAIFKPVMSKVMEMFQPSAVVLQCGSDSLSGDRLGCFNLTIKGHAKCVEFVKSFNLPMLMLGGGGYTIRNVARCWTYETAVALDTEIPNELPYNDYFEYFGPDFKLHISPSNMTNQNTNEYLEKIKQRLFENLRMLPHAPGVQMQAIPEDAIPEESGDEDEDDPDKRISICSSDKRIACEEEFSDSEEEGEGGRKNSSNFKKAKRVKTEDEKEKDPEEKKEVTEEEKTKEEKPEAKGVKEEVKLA
Experimental: as §1

[3] = test system: MDA-MB-468 cells; experiment: Cell viability assay (CellTiter-Glo); format: cell-based
Experimental: MDA-MB-468, MDA-MB-231, and T47D cells were treated with the indicated compounds at different concentrations for 72 h. Cell viability was assessed with CellTiter-Glo® reagents.
(§2) Cell lines were obtained from ATCC and subsequently authenticated. Cells were cultured with DMEM supplemented with 10% bovine calf serum, penicillin to 10 units/mL, and streptomycin to 10 μg/mL. For viability assays, 5,000 cells/well were seeded in 96-well plates. Compounds at a specified concentration or DMSO were added 24 h later. Viability assays were performed 72 h after compound addition using the CellTiter-Glo reagents (Promega). For colony formation assay, cells (˜1,000 cells/well) were seeded in a 24-well plate in quadruplicates. At 24 h after seeding, DMSO, XZ9002, or XZ9002-NC were added at a specified concentration. Medium was replaced with freshly prepared medium containing DMSO, XZ9002 or XZ9002-NC every five days until visible colonies appeared, typically in 15 to 20 days after initial cell seeding. Cells were fixed with 4% paraformaldehyde for 15 min and stained with 2% methylene blue in 20% ethanol for 30 min to 1 h. The cells were washed twice with distilled water and dried in air. For western blotting, cell cultures were exposed to compounds as indicated in relevant figures. Medium was removed from culture plate, and 1 x passive lysis buffer was then added, the plates were frozen at −80° C. overnight and thawed at room temperature. The total cell lysates were mixed with a one fifth volume of 6x SDS sample buffer, heated at 95° C. for 5 min and cooled on ice. The lysates were cleared by centrifugation and then subjected to SDS-PAGE and western blotting essentially as described. […]

[4] = target: T2, HDAC3 (in complex with the deacetylase activation domain of the human NCOR2 (amino acids 395-498)) (Homo sapiens, UniProt O15379); experiment: In vitro HDAC activity assay (HDAC-Glo I/II), HDAC3; format: biochemical; details: for IC50: HDAC-Glo I/II, average of three independent assays ± standard deviation
T2 construct: purchased BPS Bioscience 50003
T2 sequence (O15379 whole entry, the tested form may be a part): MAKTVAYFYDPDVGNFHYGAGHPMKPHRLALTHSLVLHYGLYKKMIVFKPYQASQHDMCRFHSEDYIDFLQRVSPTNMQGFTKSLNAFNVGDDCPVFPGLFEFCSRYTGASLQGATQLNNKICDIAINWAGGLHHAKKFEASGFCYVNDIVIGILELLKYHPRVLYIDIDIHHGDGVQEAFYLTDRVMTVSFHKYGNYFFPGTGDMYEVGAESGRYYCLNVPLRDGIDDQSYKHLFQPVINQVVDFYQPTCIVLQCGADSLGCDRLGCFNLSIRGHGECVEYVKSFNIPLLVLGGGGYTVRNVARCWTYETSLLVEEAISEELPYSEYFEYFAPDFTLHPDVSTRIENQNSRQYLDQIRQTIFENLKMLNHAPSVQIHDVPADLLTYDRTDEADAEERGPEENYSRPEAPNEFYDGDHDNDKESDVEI
T2 sequence (Q9Y618 395-498 partner limits assumed): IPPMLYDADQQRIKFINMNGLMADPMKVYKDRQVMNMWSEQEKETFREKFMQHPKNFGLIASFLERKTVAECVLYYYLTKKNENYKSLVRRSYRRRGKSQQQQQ
Experimental: as §1

[5] = target: HDAC3 (Homo sapiens, UniProt O15379); experiment: HDAC3 degradation in breast cancer cell lines, Western blot; format: cell-based; set-up: endogenous in cells; host or cells: MDA-MB-468, T47D, MCF7; details: MCF7 cells, 4 h (FIG. 8A)
HDAC3, sequence (O15379 whole entry): as the sequence (O15379 whole entry, the tested form may be a part) above
HDAC3, sequence (Q9Y618 395-498 partner limits assumed): as the sequence (Q9Y618 395-498 partner limits assumed) above
Text: Data are presented as representative figures of two independent experiments.
Cells were lysed for WB with antibodies against the indicated proteins. Antibodies against acetylated histones at specific sites (H3K27 and H4K5) and acetyl-lysine were used to assess levels of histone acetylation.
Cells were lysed for WB. […] The indicated BC cell lines were exposed to DMSO, XZ9002, or XZ9002-NC at the indicated concentrations. Colonies were fixed and stained.
Cell lines were obtained from ATCC and subsequently authenticated. Cells were cultured with DMEM supplemented with 10% bovine calf serum, penicillin to 10 units/mL, and streptomycin to 10 μg/mL. For viability assays, 5,000 cells/well were seeded in 96-well plates. […] For colony formation assay, cells (˜1,000 cells/well) were seeded in a 24-well plate in quadruplicates. […] Medium was replaced with freshly prepared medium containing DMSO, XZ9002 or XZ9002-NC every five days until visible colonies appeared, typically in 15 to 20 days after initial cell seeding. Cells were fixed with 4% paraformaldehyde for 15 min and stained with 2% methylene blue in 20% ethanol for 30 min to 1 h. The cells were washed twice with distilled water and dried in air. For western blotting, cell cultures were exposed to compounds as indicated in relevant figures. Medium was removed from culture plate, and 1 x passive lysis buffer was then added, the plates were frozen at −80° C. overnight and thawed at room temperature. The total cell lysates were mixed with a one fifth volume of 6x SDS sample buffer, heated at 95° C. for 5 min and cooled on ice. The lysates were cleared by centrifugation and then subjected to SDS-PAGE and western blotting essentially as described.

[6] = target: T1, HDAC2; experiment: HDAC2 protein level in breast cancer cell lines, Western blot; format: cell-based; details: MCF7 cells, 4 h (FIG. 8A)
Experimental: FIG. 3A: Western blot showing HDAC protein levels in MDA-MB-468 cells treated with the indicated concentration of XZ9002 for 14 h. FIG. 3B: pretreatment with 1 μM MG132, or 10 μM VHL032 for 1 h blocked the degradation of HDAC3 by XZ9002 {125 nM}. […] NC: XZ9002-NC. FIG. 3C: time-dependent experiment in MDA-MB-468 cells after treatment with 125 nM XZ9002 at the indicated time points. FIG. 3D: MDA-MB-468 cells were incubated with 125 nM of XZ9002 for 14 h followed by drug washout, and incubation of the cells in drug-free medium for an additional time. Data are presented as representative figures of two independent experiments.
The culture of the triple-negative breast cancer cell line MDA-MB-468 and the ER+ breast cancer cell line T47D was exposed to vehicle control (DMSO) and the indicated compounds at specified concentrations for 14 h. Cells were lysed for WB with antibodies against the indicated proteins. Antibodies against acetylated histones at specific sites (H3K27 and H4K5) and acetyl-lysine were used to assess levels of histone acetylation. Levels of HDAC3 were normalized against that of tubulin and % of HDAC3 protein levels in cells treated with the indicated compounds relative to that in DMSO control is shown.
FIGS. 8A-8B show the cellular activity of XZ9002. […] Cells were lysed for WB. The relative HDAC3 protein level in each sample is shown. […]

[7] = test system: non-small cell lung cancer (NSCLC) cell line H1299; experiment: Clonogenic growth assay, H1299; format: cell-based; details: H1299, treatment for 10 days
Experimental: H1299 cells were exposed to DMSO, or 28c at the indicated concentrations. Colonies were fixed and stained after treatment for 10 days.
as §2, with “temperature.” for “temperature. The total cell lysates were mixed with a one fifth volume of 6x SDS sample buffer, heated at 95° C. for 5 min and cooled on ice. The lysates were cleared by centrifugation and then subjected to SDS-PAGE and western blotting essentially as described.”

T1 sequence (Q92769 whole entry, the tested form may be a part): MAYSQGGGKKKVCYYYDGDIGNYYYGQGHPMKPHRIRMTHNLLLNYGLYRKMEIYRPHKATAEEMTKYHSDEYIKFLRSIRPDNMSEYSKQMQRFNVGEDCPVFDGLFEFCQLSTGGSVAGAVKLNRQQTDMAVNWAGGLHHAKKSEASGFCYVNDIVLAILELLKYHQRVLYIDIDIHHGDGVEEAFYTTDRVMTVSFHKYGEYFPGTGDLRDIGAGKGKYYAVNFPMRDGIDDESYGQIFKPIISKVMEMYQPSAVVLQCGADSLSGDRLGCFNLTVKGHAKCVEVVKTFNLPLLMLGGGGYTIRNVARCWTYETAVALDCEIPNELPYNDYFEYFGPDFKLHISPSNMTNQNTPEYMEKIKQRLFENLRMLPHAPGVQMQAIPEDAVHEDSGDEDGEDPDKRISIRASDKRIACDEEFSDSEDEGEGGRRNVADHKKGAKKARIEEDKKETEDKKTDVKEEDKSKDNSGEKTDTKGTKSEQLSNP

SMILES | IC50 [1] | IC50 [2] | antiproliferative activity (in words) ([3]; MDA-MB-468, 72 h, similar trends in MDA-MB-231 and T47D cells) | IC50 [4] | HDAC3 degradation (in words) [5] | IC50 ([3]; Homo sapiens, MDA-MB-468 cell line, 72 h, CellTiter-Glo, read-out: IC50 cytotoxicity (cell viability)) | preference for HDAC3 ([4]; against the other tested HDAC isoforms) | HDAC2 degradation (in words) [6] | inhibition of clonogenic growth [7]
CCCNNC(=O)c1ccc(-c2ccc(NC(=O)CCCCC(=O)N[C@H](C(=O)N3C[C@H](O)C[C@H]3C(=O)N[C@@H](C)c3ccc(-c4scnc4C)cc3)C(C)(C)C)cc2)cc1 [Compound 8b, N^1—((S)-1-((2S,4R)-4-Hydroxy-2-(((S)-1-(4-(4-methylthiazol-5-yl)phenyl)ethyl)carbamoyl)pyrrolidin-1-yl)-3,3-dimethyl-1-oxobutan-2-yl)-N^6-(4′-(2-propylhydrazine-1-carbonyl)-[1,1′-biphenyl]-4-yl)adipamide] | 1650 ± 70 nM | 360 ± 60 nM | decreased antiproliferative activity | 320 ± 30 nM | – | – | – | – | –
CCCNNC(=O)c1ccc(-c2ccc(NC(C)=O)cc2)cc1 [Compound 15, N-(4′-(2-propylhydrazine-1-carbonyl)[1,1′-biphenyl]-4-yl)acetamide] | 82 ± 25 nM | 72 ± 10 nM | – | 13 ± 1 nM | does not significantly degrade | 990 nM | ≥ 13 fold | does not significantly degrade | –
CCCNNC(=O)c1ccc(N2CCN(CCCCCCCC(=O)N[C@H](C(=O)N3C[C@H](O)C[C@H]3C(=O)N[C@@H](C)c3ccc(-c4scnc4C)cc3)C(C)(C)C)CC2)cc1 [Compound 28c, (2S,4R)-1-((S)-3,3-dimethyl-2-(8-(4-(4-(2-propylhydrazine-1-carbonyl)phenyl)piperazinyl)octanamido)butanoyl)-4-hydroxy-N—((S)-1-(4-(4-methylthiazol-5-yl)phenyl)ethyl)pyrrolidine carboxamide] | – | – | – | – | – | – | – | – | effective to inhibit clonogenic growth
